Reference: patent publication US20160158309A1, “EXERCISE FUNCTION ENHANCER” (KOHJIN LIFE SCIENCES CO., LTD., priority 2014, published 2016)
“Also recorded” adds a separate entry of the source.

Key:
PGC-1α = PGC-1α amount in soleus muscle by western blot; assay type: in vivo, ICR mice; settings: treated vs control groups; oral once a day for two weeks, 2.0% solution 5 μl/g body weight; sedentary group soleus muscle
Experimental: An amount of PGC-1α in the muscles was measured using a western blot test. Soleus muscle of a sedentary group was homogenized and protein concentration was measured using the BCA method (BCA™ Protein Assay Kit, Thermo [sequence]). The prepared protein sample was poured into 10% gel (Wako), was separated by electrophoresis, and was transferred to a membrane using a transfer device (iBlot, Invitrogen). After 30 minutes of blocking (EzBlokChemi, ATTO CORPORATION), the sample was cleaned three times for five minutes each in Tris buffered saline-(BIO-RAD Laboratories) Tween 20 (Wako) (TBST), and was reacted with a primary antibody using an anti-PGC-1α antibody (CHEMICON International) for 60 minutes at room temperature. The sample was then cleaned three times for five minutes each in TBST and was reacted with a secondary antibody using anti-rabbit antibody (GE Healthcare) for 60 minutes at room temperature. The sample was then cleaned three times for five minutes each in TBST and was reacted with a coloring agent (ECL plus, GE Healthcare) for four minutes. Using an image analysis device (ImageQuant LAS 4000, GE Healthcare), bands were detected and converted to numerical values. Thereafter, a relative ratio with respect to a control set was calculated.
The experiment was conducted using 7-week-old male ICR mice (Shimizu Laboratory Supplies). After one week of preliminary care, the mice were separated into two groups based on body weight: a glutathione group (n=21) and a control group (n=21). […] The same amount of distilled water was administered orally to the control group for the same period of time. A twelve-hour light/dark cycle was maintained in the enclosure and the mice were able to freely take food and water from a plastic gauge. On the final day, the groups were further divided into a control sedentary group (n=13), a control exercise group (n=8), a glutathione sedentary group (n=13), and a glutathione exercise group (n=8). The exercise groups were given the task of running on a treadmill, after which all groups were dissected. […]

[1] = Muscle tissue pH after treadmill exercise in mice; assay type: in vivo, ICR mice; settings: exercise group vs control exercise group; oral once a day for two weeks, 2.0% solution 5 μl/g body weight; treadmill 30 minutes at 25 m/min; tibialis anterior and gastrocnemis muscle
Experimental: After anesthetic, intermuscular pH of the tibialis anterior muscle and the gastrocnemis muscle was measured using a micro-glass electrode (CMN-141, Chemical Instruments).
The experiment was conducted using 7-week-old male ICR mice (Shimizu Laboratory Supplies). After one week of preliminary care, the mice were separated into two groups based on body weight: a glutathione group (n=21) and a control group (n=21). Glutathione (KOHJIN Life Sciences Co., Ltd.) was prepared in a 2.0% solution and was administered orally once a day for two weeks to the glutathione group at a dose of 5 μl/g of body weight. The same amount of distilled water was administered orally to the control group for the same period of time. […] On the final day, the groups were further divided into a control sedentary group (n=13), a control exercise group (n=8), a glutathione sedentary group (n=13), and a glutathione exercise group (n=8). The exercise groups were given the task of running on a treadmill, after which all groups were dissected.
The exercise task employed a treadmill (MK680, Muromachi Kikai). On the day of the exercise task, the sedentary groups were dissected without performing the exercise task, while the exercise groups were given the task of running on a treadmill for 30 minutes at a speed of 25 m/min, then were dissected immediately after completing the exercise task.
All of the data was plotted with the mean value±standard error. After performing a two-way analysis of variance in comparing the four groups, a multiple comparison test (Bonferroni) was performed. Student's t-distribution test was performed when comparing two groups. Level of significance was defined at 5%.

SMILES | PGC-1α expression in the soleus muscles (relative ratio to control) (PGC-1α) | Muscle tissue pH [1]
N[C@@H](CCC(=O)N[C@@H](CS)C(=O)NCC(=O)O)C(=O)O [glutathione, γ-L-Glu-L-Cys-Gly] | significantly higher value; also recorded: an increase in PGC-1α expression | significantly higher value; also recorded: no reduction in muscle tissue pH was observed
O=C1O[C@H]([C@@H](O)CO)C(O)=C1O [vitamin C] | not observed | not observed
